According to US9738591B2, “Antimicrobial compounds” (priority 2009, dated 2017):

What was measured:
[1] = test system: Citrobacter freundii NCTC 9750/ATCC 8090; experiment: Disk diffusion; settings: 10 mg/ml, 20 μl; repeat
[2] = test system: Shigella flexneri NCTC 8192; experiment: Disk diffusion; format: cell-based; settings: 10 mg/ml, 20 μl; repeat
Protocol: (§1) Plates were incubated at 35° C.

[3] = test system: Clostridium difficile NCTC 43593; experiment: Disk diffusion; format: cell-based; settings: 10 mg/ml, 20 μl, BA - prereduced, anaerobe
Protocol: as §1

[4] = test system: Enterococcus faecium ATCC 19434; experiment: Disk diffusion; format: cell-based; settings: 10 mg/ml, 20 μl
[5] = test system: Moraxella catarrhalis ATCC 25238; experiment: Disk diffusion; format: cell-based; settings: 10 mg/ml, 20 μl, incubated in 5% CO2
[6] = test system: sheep erythrocytes; experiment: Haemolysis of sheep erythrocytes; format: cell-based; settings: for Average (SD) % haemolysis (n = 2): 2% sheep erythrocytes, 37° C., 2 h
Protocol: As an indicator of toxicity to human cells, haemolysis experiments on sheep erythrocytes were undertaken with TSB007.
10 mg/ml stock solution of TSB007 was prepared in 100% DMSO. Master stock solutions of TSB007 (10 mg/ml) were made by dissolving 20 mg dehydrated compound in 2 ml 100% DMSO. They were stored in foil-covered glass bottles at −20° C. Master stocks stored in this way retained full antimicrobial activity for a minimum period of 6 weeks (results not shown).
Serial, 10-fold dilutions were performed in PBS to make solutions of 1000, 100, 10 and 1 mg/L of TSB007. In microcentrifuge tubes, 500 μl of each dilution was combined with 480 μl PBS and 20 μl washed sheep erythrocytes (100%) so that the final concentration of erythrocytes was 2% and the final concentrations of compound were 500, 50, 5 and 0.5 mg/L. Dilutions of DMSO without. TSB007 were prepared and tested as above to check for haemolysis due to DMSO. A 100% haemolysis control was prepared with 980 μl water and 20 μl erythrocyte suspension. A negative control was prepared with 980 μl PBS and 20 μl erythrocyte suspension. Dilutions and controls were prepared and tested in duplicate.
Tubes were incubated at 37° C. for 2 h on a rocker then centrifuged at 12 000 g for 5 mins. The OD540 of the supernatant was determined using 100 μl volumes transferred to a microtitre tray. % haemolysis was determined by blanking the OD against that of the negative control and presenting the resulting OD as a proportion of the OD of the positive control (blanked with water).

[7] = test system: L929 cells; experiment: Cytotoxicity, neutral red assay; format: cell-based; settings: for ratio of the well's OD compared to the OD of the negative control, Average (SD) (n = 2): 24 h, ratios ≦0.5 indicate a cytostatic effect
Protocol: L929 cells grown to approximately 80% confluency in HGM-M were washed with Hanks, trypsonised to detach the cells from the flask, then diluted to 10^5 cells/ml in HGM-M and 200 μl used to inoculate the wells of a 96-well microtitre tray. After incubation for 24 h at 37° C., adherent cells were washed with Hanks and then 100 μl HGM-M was added to the wells. Fresh TSB007 master stock solution (10 mg/ml) was serially 10-fold diluted in HGM-M to make solutions of 1000, 100, 10 and 1 μg/ml of TSB007. To the wells of the microtitre tray, 100 μl of these TSB007 solutions were also added, giving final concentrations of 500, 50, 5 and 0.5 μg/ml of TSB007. The same dilutions of DMSO were prepared and tested to check that cytotoxic activity was not due to the DMSO. A negative control was prepared containing only HGM-M, and a positive control was prepared by adding 100 μl of carboplatin (10 mg/ml; Mayne Pharma Pty Ltd, Australia) to wells containing 100 μl HGM-M. Controls and dilutions of TSB007 and DMSO were prepared in duplicate.
After 24 h shaking at 37° C., cytotoxicity was quantified using the neutral red assay. The cells were washed with Hanks then 200 μl HGM-M and 20 μl Neutral Red (3.3 g/L; Sigma-Aldrich) were added to each well. After 2 h shaking at 37° C., cells were washed twice with PBS then 200 μl of 1% acetic acid in 50% EtOH was added to each well to solubilise the stain. After 15 min shaking at 37° C. the OD690 nm of the wells was measured and subtracted from the OD540 nm. Results were then blanked against wells to which no cells had been added, and converted to a ratio of the OD of the negative control. Ratios […] indicated a cytostatic effect. Testing was performed on two separate occasions.

[8] = test system: Proteus mirabilis NCTC 10975; experiment: Disk diffusion; settings: 10 mg/ml, 20 μl; repeat; value printed with '?'
[9] = test system: Aeromonas hydrophila NCTC 8049/ATCC 7966; experiment: Disk diffusion; settings: 10 mg/ml, 20 μl; repeat
[10] = test system: Stenotrophomonas maltophilia M2495; experiment: Disk diffusion; format: cell-based; settings: 10 mg/ml, 20 μl, strain M2495
[11] = test system: Clostridium perfringens ATCC 2734; format: cell-based; settings: 10 mg/ml, 20 μl, BA - prereduced, anaerobe
[12] = test system: Klebsiella edwardsii NCTC 10896; experiment: Disk diffusion; format: cell-based; settings: 10 mg/ml, 20 μl

Q: How did the “Zone diameters, Repeat Results” value [1] turn out when O=C(O)c1ccc(/C=C/c2cc(/C=C/c3ccc(C(=O)O)cc3)cc(/C=C/c3ccc(C(=O)O)cc3)c2)cc1 [TSB007] was run?
A: 9 trim

Q: What about the “Zone diameters, Repeat Results” value [2] of the same compound?
A: 8.5 trim

Q: And the “Zone diameters, 24 h TSB007” value ([3]; 24 h)?
A: 10 trim

Q: What about the “Zone diameters, 48 h TSB007” value ([3]; 48 h) of the same compound?
A: 10 trim

Q: And the “Zone diameters, 24 h TSB007” value ([4]; 24 h)?
A: 11 trim

Q: What about the “Zone diameters, 48 h TSB007” value ([4]; 48 h) of the same compound?
A: 10 trim

Q: What about the “Zone diameters, 24 h TSB007” value ([5]; 24 h) of the same compound?
A: 25 trim

Q: And the “Zone diameters, 48 h TSB007” value ([5]; 48 h)?
A: 25 trim

Q: And the “Average (SD) % haemolysis (n = 2)” value ([6]; 0.5 mg/L)?
A: −2.316 (0.695) %

Q: And the “Average (SD) % haemolysis (n = 2)” value ([6]; 5 mg/L)?
A: 2.175 (0.099) %

Q: And the “Average (SD) % haemolysis (n = 2)” value ([6]; 50 mg/L)?
A: 2.316 (0.099) %

Q: And the haemolytic activity ([6]; 0.5-500 mg/L)?
A: very low

Q: What about the “Average (SD) % haemolysis (n = 2)” value ([6]; 500 mg/L) of the same compound?
A: 5.053 (0.595) %

Q: What about the “ratio of the well's OD compared to the OD of the negative control, Average (SD) (n = 2)” value (from here on “ratio of the well's OD … (SD) (n = 2)”) ([7]; 0.5 μg/ml) of the same compound?
A: 0.846 (0.285)

Q: What about the “ratio of the well's OD … (SD) (n = 2)” value ([7]; 5 μg/ml) of the same compound?
A: 0.882 (0.021)

Q: And the “ratio of the well's OD … (SD) (n = 2)” value ([7]; 50 μg/ml)?
A: 0.867 (0.030)

Q: And the “cytostatic effect on L929 cells” value ([7]; 500 μg/ml)?
A: cytostatic

Q: What about the “ratio of the well's OD … (SD) (n = 2)” value ([7]; 500 μg/ml) of the same compound?
A: 0.384 (0.009)

Q: And the “cytostatic effect on L929 cells” value ([7]; 0.5-50 μg/ml)?
A: not significantly cytostatic

Q: What about the “Zone diameters, Repeat Results” value [8] of the same compound?
A: 9? trim

Q: And the “Zone diameters, Repeat Results” value [9]?
A: 8 trim

Q: What about the “Zone diameters, Repeat Results” value [10] of the same compound?
A: 9 trim

Q: What about the “Zone diameters, 24 h TSB007” value ([11]; 24 h) of the same compound?
A: 12 trim

Q: What about the “Zone diameters, 48 h TSB007” value ([11]; 48 h) of the same compound?
A: 12 trim

Q: And the “Zone diameters, Repeat Results” value [12]?
A: 9 trim
